Laboratory results reported in patent EP1935986B1, “Luminogenic and fluorogenic compounds and methods to detect molecules or conditions” (priority 2005, dated 2006).

What was measured:
[1] = target: T1, QuantiLum Luciferase (Photinus pyralis, UniProt P08659); assay: Scaffolds: light emission of luciferin derivatives with QuantiLum luciferase alone, + Co A, + DTT, + Co A and DTT; assay type: biochemical, firefly
T1 construct: purchased Promega Corporation E170
Experimental: The DTT, Coenzyme A, and QuantiLum stock solutions are the same as those described herein.
This solution was diluted 1:1 with water to produce an enzyme solution labeled "No addition." This solution was diluted 1:1 with 400 mM DTT, pH 8.0 to produce a solution labeled +DTT. This solution was diluted 1:1 with 4 mM Coenzyme A to produce a solution labeled + Co A. Finally, this solution was diluted 1:1 with a solution having both 4 mM Coenzyme A and 400 mM DTT to produce a solution labeled +Co A & DTT.
50 µl samples of these solutions were placed in the wells of luminometer microtiter plates, row A to row G, respeutivly. Row H of the plates was given 50 µl of water.
Reactions in these plates were initiated by addition of 50 µl of solution containing QuantiLum luciferase using a 12 channel micropipette. The solutions added to the rows were: columns 1, 5, and 9 - no addition solution; columns 2, 6, and 10 - + Co A solution; columns 3, 7, and 11 + DTT solution, and; columns 4, 8, and 12 - + Co A and DTT solution. After addition of the enzyme solution to the first row on every plate, a timer was started. After addition of the enzyme solution to the last row on each plate, the plate was sealed and read on a Veritas luminometer.

[2] = target: T2, human recombinant monoamine oxidase A (MAO A) (Homo sapiens, UniProt P21397); assay: Two-step luminescent MAO assay with luciferin derivative; conditions: for RLUmax: fit of Tables 23-24 (TableCurve)
T2 sequence (P21397 1-527): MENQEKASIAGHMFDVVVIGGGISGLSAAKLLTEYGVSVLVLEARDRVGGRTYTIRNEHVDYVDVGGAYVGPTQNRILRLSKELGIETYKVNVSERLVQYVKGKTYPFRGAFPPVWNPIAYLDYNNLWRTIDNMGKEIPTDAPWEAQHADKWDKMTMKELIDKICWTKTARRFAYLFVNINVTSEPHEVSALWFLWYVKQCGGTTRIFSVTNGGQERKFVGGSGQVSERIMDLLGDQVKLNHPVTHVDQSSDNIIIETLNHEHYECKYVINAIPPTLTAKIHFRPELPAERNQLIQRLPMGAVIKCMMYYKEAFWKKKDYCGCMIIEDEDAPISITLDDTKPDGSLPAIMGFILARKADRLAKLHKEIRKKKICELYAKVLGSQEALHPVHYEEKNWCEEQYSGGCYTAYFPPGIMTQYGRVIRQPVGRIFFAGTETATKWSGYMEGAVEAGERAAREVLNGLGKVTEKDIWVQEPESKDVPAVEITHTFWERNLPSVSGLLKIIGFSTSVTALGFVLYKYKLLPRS

[3] = target: T3, human recombinant monoamine oxidase B (MAO B) (Homo sapiens, UniProt P27338); assay: as above; assay type: biochemical; conditions: fit of Tables 23-24 (TableCurve)
T3 construct: purchased Sigma Chemical Company M-7441; host or cells: baculovirus infected insect cells (microsomes)
T3 sequence (P27338 1-520): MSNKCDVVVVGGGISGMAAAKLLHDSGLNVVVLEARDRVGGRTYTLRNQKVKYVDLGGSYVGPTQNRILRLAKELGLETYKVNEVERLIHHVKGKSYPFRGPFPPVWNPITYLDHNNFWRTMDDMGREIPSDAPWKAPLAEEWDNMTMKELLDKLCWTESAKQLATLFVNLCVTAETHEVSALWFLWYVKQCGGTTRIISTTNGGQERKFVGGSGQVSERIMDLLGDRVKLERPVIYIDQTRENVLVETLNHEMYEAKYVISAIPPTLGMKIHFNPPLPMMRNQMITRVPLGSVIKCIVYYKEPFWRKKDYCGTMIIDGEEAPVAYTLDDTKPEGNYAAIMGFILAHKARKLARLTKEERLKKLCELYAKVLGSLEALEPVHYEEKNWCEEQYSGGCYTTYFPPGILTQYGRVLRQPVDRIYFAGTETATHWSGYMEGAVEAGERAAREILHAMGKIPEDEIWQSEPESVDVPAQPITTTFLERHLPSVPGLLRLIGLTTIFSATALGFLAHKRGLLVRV

[4] = tested on: luciferase; assay: No-enzyme control: activity of luciferase towards the luciferin derivative (background luminescence); conditions: wild type microsomes instead of FMO 3
[5] = tested on: human recombinant flavin-containing monooxygenase 3 (FMO 3); assay: Two-step luminescent FMO assay with luciferin derivative; assay type: biochemical

T1 sequence (P08659 whole entry): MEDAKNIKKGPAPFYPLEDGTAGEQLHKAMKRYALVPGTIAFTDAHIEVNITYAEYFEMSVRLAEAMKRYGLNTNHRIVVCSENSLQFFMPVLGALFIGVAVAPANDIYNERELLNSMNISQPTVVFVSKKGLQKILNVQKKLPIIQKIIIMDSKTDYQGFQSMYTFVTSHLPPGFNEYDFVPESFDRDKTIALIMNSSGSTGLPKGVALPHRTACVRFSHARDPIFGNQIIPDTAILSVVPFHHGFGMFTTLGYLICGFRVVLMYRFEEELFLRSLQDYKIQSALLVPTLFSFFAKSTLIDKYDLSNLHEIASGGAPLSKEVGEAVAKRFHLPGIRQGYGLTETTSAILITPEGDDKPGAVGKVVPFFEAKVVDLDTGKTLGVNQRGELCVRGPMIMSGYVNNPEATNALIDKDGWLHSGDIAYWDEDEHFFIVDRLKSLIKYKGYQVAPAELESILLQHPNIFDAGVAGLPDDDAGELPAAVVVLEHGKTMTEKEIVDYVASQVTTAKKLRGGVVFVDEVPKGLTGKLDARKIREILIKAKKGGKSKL

Q: What does the source list for `NCCCOc1ccc2nc(C3=N[C@@H](C(=O)O)CS3)sc2c1` [MAO-3, 6-Aminopropoxyluciferin]?
A: light emission values ([1]; Derivative Conc. 1.07, Alone): 94583; light emission values ([1]; Derivative Conc. 1.07, Co A): 122510; light emission values ([1]; Derivative Conc. 1.07, Co A + DTT): 52637; light emission values ([1]; Derivative Conc. 1.07, DTT): 111682; light emission values ([1]; Derivative Conc. 3.13, Alone): 131633; light emission values ([1]; Derivative Conc. 3.13, Co A): 176814; light emission values ([1]; Derivative Conc. 3.13, Co A + DTT): 171233; light emission values ([1]; Derivative Conc. 3.13, DTT): 200074; light emission values ([1]; Derivative Conc. 6.25, Alone): 201597; light emission values ([1]; Derivative Conc. 6.25, Co A): 321914; light emission values ([1]; Derivative Conc. 6.25, Co A + DTT): 82531; light emission values ([1]; Derivative Conc. 6.25, DTT): 348398; light emission values ([1]; Derivative Conc. 12.5, Alone): 252130; light emission values ([1]; Derivative Conc. 12.5, Co A): 467021; light emission values ([1]; Derivative Conc. 12.5, Co A + DTT): 509896; light emission values ([1]; Derivative Conc. 12.5, DTT): 525765; light emission values ([1]; Derivative Conc. 25, Alone): 272608; light emission values ([1]; Derivative Conc. 25, Co A): 588881; light emission values ([1]; Derivative Conc. 25, DTT): 733675; light emission values ([1]; Derivative Conc. 50, Alone): 179585; light emission values ([1]; Derivative Conc. 50, Co A): 444494; light emission values ([1]; Derivative Conc. 50, Co A + DTT): 865209; light emission values ([1]; Derivative Conc. 50, DTT): 868903; light emission values ([1]; Derivative Conc. 100, Alone): 348013; light emission values ([1]; Derivative Conc. 100, Co A): 741882; light emission values ([1]; Derivative Conc. 100, Co A + DTT): 1019425; light emission values ([1]; Derivative Conc. 100, DTT): 994617; RLUmax [2]: 210; RLUmax [3]: 660

Q: How did the RLUmax [2] turn out when `CNCCCOc1ccc2nc(C3=N[C@@H](C(=O)O)CS3)ccc2c1` [MAO-7, 6-(3-methylaminopropoxy)quinolinyl-lucifexin] was run?
A: 750

Q: And the “substrate specificity as indicated by the ratio RLUmax/Km” value ([2]; result in words)?
A: more specific substrate for MAO A

Q: And the “relative light units, control” value ([4]; [MAO-7] 43 µM)?
A: 1043 RLUs

Q: What about the “relative light units, control” value ([4]; [MAO-7] 86 µM) of the same compound?
A: 1585 RLUs

Q: And the “relative light units, control” value ([4]; [MAO-7] 258 µM)?
A: 3592 RLUs

Q: What about the “relative light units, control” value ([4]; [MAO-7] 344 µM) of the same compound?
A: 4486 RLUs

Q: And the “relative light units, control” value ([4]; [MAO-7] 516 µM)?
A: 6137 RLUs

Q: What about the “relative light units, control” value ([4]; [MAO-7] 688 µM) of the same compound?
A: 7213 RLUs

Q: And the “relative light units, FMO 3” value ([5]; [MAO-7] 43 µM)?
A: 8220 RLUs

Q: And the “relative light units, net FMO 3” value ([5]; [MAO-7] 43 µM)?
A: 7177 RLUs

Q: What about the “relative light units, FMO 3” value ([5]; [MAO-7] 86 µM) of the same compound?
A: 13646 RLUs

Q: And the “relative light units, net FMO 3” value ([5]; [MAO-7] 86 µM)?
A: 12061 RLUs

Q: And the “relative light units, FMO 3” value ([5]; [MAO-7] 258 µM)?
A: 28987 RLUs

Q: What about the “relative light units, net FMO 3” value ([5]; [MAO-7] 258 µM) of the same compound?
A: 25395 RLUs

Q: And the “relative light units, FMO 3” value ([5]; [MAO-7] 344 µM)?
A: 34036 RLUs

Q: What about the “relative light units, net FMO 3” value ([5]; [MAO-7] 344 µM) of the same compound?
A: 29550 RLUs

Q: And the “relative light units, FMO 3” value ([5]; [MAO-7] 516 µM)?
A: 40329 RLUs

Q: What about the “relative light units, net FMO 3” value ([5]; [MAO-7] 516 µM) of the same compound?
A: 34192 RLUs

Q: And the “relative light units, FMO 3” value ([5]; [MAO-7] 688 µM)?
A: 42707 RLUs

Q: What about the “relative light units, net FMO 3” value ([5]; [MAO-7] 688 µM) of the same compound?
A: 35494 RLUs

Q: What about the Km ([5]; fit of Table 33, CHES pH 9.5) of the same compound?
A: 200 ± 20 µM

Q: What about the RLUmax [3] of the same compound?
A: 48
